Measured values published in the supplement of paper PMC10307832.

Experiments:
Assay in all cases: relative viability (nuclei count vs DMSO), 5 days (fraction); higher = more cells survive
NCI-H1792 = tested on: NCI-H1792
Outline: (§1)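 Five library-drug doses in √10 steps were combined with a fixed anchor-drug dose, or a single drug was given alone, by pin tool to lung cancer cell lines in 1536-well plates the day after seeding. Nuclei were stained and counted after 5 days. Relative viability is the nuclei count in treated wells over that in vehicle wells, taken as the median of duplicate plates.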

ChaGo-K-1 = tested on: ChaGo-K-1
Outline: as §1

HCC-366 = tested on: HCC-366
Outline: as §1

NCI-H2405 = tested on: NCI-H2405
Outline: as §1

NCI-H460 = tested on: NCI-H460
Outline: as §1

LCLC-97TM1 = tested on: LCLC-97TM1
Outline: as §1

NCI-H1734 = tested on: NCI-H1734
Outline: as §1

COR-L23 = tested on: COR-L23
Outline: as §1

SK-LU-1 = tested on: SK-LU-1
Outline: as §1

HCC-78 = tested on: HCC-78
Outline: as §1

LK-2 = tested on: LK-2
Outline: as §1

NCI-H1355 = tested on: NCI-H1355
Outline: as §1

201T = tested on: 201T
Outline: as §1

NCI-H2085 = tested on: NCI-H2085
Outline: as §1

NCI-H1993 = tested on: NCI-H1993
Outline: as §1

NCI-H838 = tested on: NCI-H838
Outline: as §1

HARA = tested on: HARA
Outline: as §1

NCI-H520 = tested on: NCI-H520
Outline: as §1

NCI-H3122 = tested on: NCI-H3122
Outline: as §1

NCI-H1975 = tested on: NCI-H1975
Outline: as §1

HCC-15 = tested on: HCC-15
Outline: as §1

NCI-H1650 = tested on: NCI-H1650
Outline: as §1

LOU-NH91 = tested on: LOU-NH91
Outline: as §1

How did the relative viability (NCI-H1792; first compound 0.08 µM) turn out when `Oc1nc(-c2ccc(C(F)(F)F)cc2)nc2c1CSCC2` [XAV939] + Nc1nc2[nH]cc(CCc3ccc(C(=O)N[C@@H](CCC(=O)O)C(=O)O)cc3)c2c(=O)[nH]1 [Pemetrexed] (partner 0.2 µM) was run?
The relative viability was 0.967.

What about the relative viability (NCI-H1792; first compound 0.253 µM) of the same compound?
The relative viability was 0.726.

What about the relative viability (NCI-H1792; first compound 0.8 µM) of the same compound?
The relative viability was 0.813.

And the relative viability (NCI-H1792; first compound 2.53 µM)?
Its relative viability is 0.72.

What about the relative viability (ChaGo-K-1; first compound 0.08 µM) of the same compound?
Its relative viability is 0.261.

What about the relative viability (ChaGo-K-1; first compound 0.253 µM) of the same compound?
The relative viability was 0.259.

And the relative viability (ChaGo-K-1; first compound 0.8 µM)?
Its relative viability is 0.269.

What about the relative viability (ChaGo-K-1; first compound 2.53 µM) of the same compound?
The relative viability was 0.26.

What about the relative viability (HCC-366; first compound 0.08 µM) of the same compound?
The relative viability was 0.179.

What about the relative viability (HCC-366; first compound 0.253 µM) of the same compound?
The relative viability was 0.131.

And the relative viability (HCC-366; first compound 0.8 µM)?
The relative viability was 0.142.

And the relative viability (HCC-366; first compound 2.53 µM)?
Its relative viability is 0.117.

What about the relative viability (NCI-H2405; first compound 0.08 µM) of the same compound?
Its relative viability is 0.972.

And the relative viability (NCI-H2405; first compound 0.253 µM)?
Its relative viability is 0.992.

And the relative viability (NCI-H2405; first compound 0.8 µM)?
Its relative viability is 0.945.

And the relative viability (NCI-H2405; first compound 2.53 µM)?
The relative viability was 0.94.

And the relative viability (NCI-H460; first compound 0.08 µM)?
The relative viability was 0.0608.

And the relative viability (NCI-H460; first compound 0.253 µM)?
Its relative viability is 0.0511.

What about the relative viability (NCI-H460; first compound 0.8 µM) of the same compound?
Its relative viability is 0.07.

And the relative viability (NCI-H460; first compound 2.53 µM)?
The relative viability was 0.0697.

What about the relative viability (LCLC-97TM1; first compound 0.08 µM) of the same compound?
The relative viability was 0.234.

And the relative viability (LCLC-97TM1; first compound 0.253 µM)?
Its relative viability is 0.179.

What about the relative viability (LCLC-97TM1; first compound 2.53 µM) of the same compound?
The relative viability was 0.162.

What about the relative viability (NCI-H1734; first compound 0.08 µM) of the same compound?
The relative viability was 0.444.

And the relative viability (NCI-H1734; first compound 0.253 µM)?
Its relative viability is 0.405.

What about the relative viability (NCI-H1734; first compound 0.8 µM) of the same compound?
Its relative viability is 0.417.

And the relative viability (NCI-H1734; first compound 2.53 µM)?
The relative viability was 0.392.

And the relative viability (COR-L23; first compound 0.08 µM)?
Its relative viability is 0.205.

What about the relative viability (COR-L23; first compound 0.253 µM) of the same compound?
The relative viability was 0.186.

And the relative viability (COR-L23; first compound 0.8 µM)?
Its relative viability is 0.203.

What about the relative viability (COR-L23; first compound 2.53 µM) of the same compound?
The relative viability was 0.206.

What about the relative viability (SK-LU-1; first compound 0.08 µM) of the same compound?
The relative viability was 1.05.

And the relative viability (SK-LU-1; first compound 0.253 µM)?
Its relative viability is 1.

What about the relative viability (SK-LU-1; first compound 0.8 µM) of the same compound?
Its relative viability is 1.1.

And the relative viability (SK-LU-1; first compound 2.53 µM)?
The relative viability was 0.947.

And the relative viability (HCC-78; first compound 0.08 µM)?
The relative viability was 0.881.

And the relative viability (HCC-78; first compound 0.253 µM)?
Its relative viability is 0.829.

And the relative viability (HCC-78; first compound 0.8 µM)?
The relative viability was 0.846.

And the relative viability (HCC-78; first compound 2.53 µM)?
Its relative viability is 0.942.

What about the relative viability (LK-2; first compound 0.08 µM) of the same compound?
The relative viability was 0.291.

And the relative viability (LK-2; first compound 0.253 µM)?
Its relative viability is 0.281.

And the relative viability (LK-2; first compound 0.8 µM)?
The relative viability was 0.236.

And the relative viability (LK-2; first compound 2.53 µM)?
The relative viability was 0.229.

And the relative viability (NCI-H1355; first compound 0.08 µM)?
Its relative viability is 1.02.

What about the relative viability (NCI-H1355; first compound 0.253 µM) of the same compound?
Its relative viability is 0.944.

And the relative viability (NCI-H1355; first compound 0.8 µM)?
Its relative viability is 0.962.

And the relative viability (NCI-H1355; first compound 2.53 µM)?
The relative viability was 0.852.

And the relative viability (201T; first compound 0.08 µM)?
The relative viability was 0.359.

What about the relative viability (201T; first compound 0.253 µM) of the same compound?
Its relative viability is 0.338.

And the relative viability (201T; first compound 0.8 µM)?
The relative viability was 0.374.

What about the relative viability (201T; first compound 2.53 µM) of the same compound?
The relative viability was 0.288.

What about the relative viability (NCI-H2085; first compound 0.08 µM) of the same compound?
The relative viability was 1.02.

And the relative viability (NCI-H2085; first compound 0.253 µM)?
The relative viability was 0.801.

And the relative viability (NCI-H2085; first compound 0.8 µM)?
Its relative viability is 0.878.

What about the relative viability (NCI-H2085; first compound 2.53 µM) of the same compound?
Its relative viability is 0.837.

What about the relative viability (NCI-H1993; first compound 0.08 µM) of the same compound?
The relative viability was 0.575.

And the relative viability (NCI-H1993; first compound 0.253 µM)?
The relative viability was 0.471.

And the relative viability (NCI-H1993; first compound 0.8 µM)?
Its relative viability is 0.536.

What about the relative viability (NCI-H1993; first compound 2.53 µM) of the same compound?
Its relative viability is 0.541.

What about the relative viability (NCI-H838; first compound 0.08 µM) of the same compound?
Its relative viability is 0.252.

What about the relative viability (NCI-H838; first compound 0.253 µM) of the same compound?
The relative viability was 0.245.

What about the relative viability (NCI-H838; first compound 0.8 µM) of the same compound?
The relative viability was 0.244.

And the relative viability (NCI-H838; first compound 2.53 µM)?
The relative viability was 0.233.

And the relative viability (HARA; first compound 0.08 µM)?
The relative viability was 0.255.

What about the relative viability (HARA; first compound 0.253 µM) of the same compound?
Its relative viability is 0.305.

And the relative viability (HARA; first compound 0.8 µM)?
The relative viability was 0.252.

And the relative viability (HARA; first compound 2.53 µM)?
The relative viability was 0.193.

And the relative viability (NCI-H520; first compound 0.08 µM)?
Its relative viability is 0.757.

What about the relative viability (NCI-H520; first compound 0.8 µM) of the same compound?
Its relative viability is 0.594.

And the relative viability (NCI-H520; first compound 2.53 µM)?
The relative viability was 0.626.

What about the relative viability (NCI-H3122; first compound 0.08 µM) of the same compound?
The relative viability was 0.211.

And the relative viability (NCI-H3122; first compound 0.253 µM)?
Its relative viability is 0.19.

And the relative viability (NCI-H3122; first compound 0.8 µM)?
Its relative viability is 0.198.

And the relative viability (NCI-H3122; first compound 2.53 µM)?
Its relative viability is 0.178.

What about the relative viability (NCI-H1975; first compound 0.08 µM) of the same compound?
The relative viability was 0.27.

What about the relative viability (NCI-H1975; first compound 0.253 µM) of the same compound?
The relative viability was 0.273.

What about the relative viability (NCI-H1975; first compound 0.8 µM) of the same compound?
Its relative viability is 0.286.

And the relative viability (NCI-H1975; first compound 2.53 µM)?
Its relative viability is 0.246.

And the relative viability (HCC-15; first compound 0.08 µM)?
The relative viability was 0.238.

What about the relative viability (HCC-15; first compound 0.253 µM) of the same compound?
Its relative viability is 0.214.

And the relative viability (HCC-15; first compound 0.8 µM)?
The relative viability was 0.241.

And the relative viability (HCC-15; first compound 2.53 µM)?
The relative viability was 0.201.

What about the relative viability (NCI-H1650; first compound 0.08 µM) of the same compound?
The relative viability was 0.368.

What about the relative viability (NCI-H1650; first compound 0.253 µM) of the same compound?
Its relative viability is 0.301.

And the relative viability (NCI-H1650; first compound 0.8 µM)?
Its relative viability is 0.356.

What about the relative viability (NCI-H1650; first compound 2.53 µM) of the same compound?
The relative viability was 0.365.

What about the relative viability (LOU-NH91; first compound 0.08 µM) of the same compound?
Its relative viability is 0.461.

And the relative viability (LOU-NH91; first compound 0.253 µM)?
Its relative viability is 0.359.

And the relative viability (LOU-NH91; first compound 0.8 µM)?
The relative viability was 0.391.

What about the relative viability (LOU-NH91; first compound 2.53 µM) of the same compound?
The relative viability was 0.349.
